Measurements reported in US20110070320A1, “BIODEGRADABLE THERMORESPONSIVE 3-ARM POLYETHYLENE GLYCOL POLY(LACTIDE-CO-GLYCOLIDE) COPOLYMER FOR GINSENG ADMINISTRATION” (priority 2009, published 2011).

Legend:
Format in all cases: physicochemical
[1] = Doxorubicin release from copolymer aqueous gel; details: 37° C.; 20% (w/w) copolymer gel; FIG. 3
Description: Doxorubicin was used as a hydrophilic drug in a drug release study using the copolymer of EXAMPLE 1 in a 20% (w/w) aqueous solution. The drug (4 mg) was dissolved in 2 ml of the polymer solution. The drug/polymer solution was filtered through a 0.2 μm syringe and an aliquot of 0.5 ml of the solution was added to each sample vial. The triplet samples were placed in a water bath preheated and stabilized at 37° C. After 10 min a buffer solution of 1×PBS (1 ml, preheated at 37° C.) was added to each sample vial containing a gelled drug/polymer solution. The drug contents in the release media, which were removed and replaced with fresh PBS solutions at each sampling point, were determined at 1, 3, 6 h and then daily for 8 days by a spectrophotometer (SpecraMax M2 by Molecular Devices).

[2] = Enhanced drug solubility in polymer gel (HPLC); details: aqueous solution of Example 1 polymer (20% w/w); filtered 0.2 μm
Description: In a 4 ml vial the polymer from EXAMPLE 1 (200 mg) and paclitaxel (2 mg) were dissolved in acetone (1·ml). The mixture was evaporated under vacuum for 16 h. Deionized water (0.8 ml) was added and the mixture was stirred at 4° C. for 24 h. The resulting solution was filtered through a 0.2 μm syringe filter to give a clear solution. An aliquot of the solution was diluted 100-fold with acetonitrile and analyzed for paclitaxel by HPLC (mobile phase: water/acetonitrile 1:1, 1 ml/min, injection volume: 20 μl, running time: 15 min, column: Waters Symmetry 300™ 4.6×250 mm, C18 5 μm, detector: Waters 2996).

[3] = Paclitaxel release from copolymer aqueous gel; details: 37° C.; 20% (w/w) copolymer gel; FIG. 2
Description: Paclitaxel was used as a hydrophobic drug in a drug release study using the copolymer of EXAMPLE 1 in a 20% (w/w) aqueous solution. The drug (4 mg) was added to a 4 ml vial containing 0.2 ml of the polymer solution. At 4° C. the sample vial was sonicated for 15 min and vortexed for 16 h and sonicated for 15 min again to give a slightly cloudy suspension. After filtered through a 0.2 μm syringe filter an aliquot (0.2 ml) of the solution was added to each sample vial. The triplet samples were placed in a water bath preheated and stabilized at 37° C. After 10 min a buffer solution of 1×PBS (3 ml, preheated at 37° C.) containing 2.4% (w/w) of Tween 80 and 4% (w/w) of Cremophor EL was added to each sample vial containing a gelled drug/polymer solution. The drug release was determined by taking an aliquot of the medium from each sample vial at 1.5 h, 6 h and then daily for 10 days and analyzing the drug content of the sample by HPLC (mobile phase 1 ml/min 50/50 acetonitrile/deioned water, wavelength 227 nm, running time 15 min).

duration of controlled drug release from copolymer aqueous gel [1] [days]	paclitaxel content in the aqueous solution [2] [mg/mL]	duration of controlled drug release from copolymer aqueous gel [3] [days]	Structure (SMILES)
8			COc1cccc2c1C(=O)c1c(O)c3c(c(O)c1C2=O)C[C@@](O)(C(=O)CO)C[C@@H]3O[C@H]1C[C@H](N)[C@H](O)[C@H](C)O1 [doxorubicin, Doxorubicin]
	6.4	10	CC(=O)O[C@H]1C(=O)[C@@]2(C)[C@H]([C@H](OC(=O)c3ccccc3)[C@]3(O)C[C@H](OC(=O)[C@H](O)[C@@H](NC(=O)c4ccccc4)c4ccccc4)C(C)=C1C3(C)C)[C@]1(OC(C)=O)CO[C@@H]1C[C@@H]2O [paclitaxel, Paclitaxel]
